The results in this text go back to US20080146811A1, “Compounds and Methods For Treatment of Thrombosis” (priority 2004, published 2008).

Molecules are shown by their SMILES.

Assay type in all cases: biochemical
One test has as its target factor XIa (Homo sapiens, UniProt P03951). The experiment in a line: In vitro inhibition of factor XIa.
For a further test, the target named is factor Xa (Homo sapiens, UniProt P00742). In words: In vitro inhibition of factor Xa.
For another test, the target named is thrombin (Homo sapiens, UniProt P00734). The experiment in a line: In vitro inhibition of thrombin.

Sequence of factor Xa (P00742 235-488 limits assumed): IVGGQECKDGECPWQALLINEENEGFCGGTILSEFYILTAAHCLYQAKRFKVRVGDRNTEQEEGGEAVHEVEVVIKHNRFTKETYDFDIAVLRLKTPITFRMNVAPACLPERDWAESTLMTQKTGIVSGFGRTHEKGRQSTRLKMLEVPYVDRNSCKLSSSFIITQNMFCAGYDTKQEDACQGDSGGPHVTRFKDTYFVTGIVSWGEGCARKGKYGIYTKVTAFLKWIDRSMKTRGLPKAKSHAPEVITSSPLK
Sequence of factor Xa (P00742 41-179 partner limits assumed): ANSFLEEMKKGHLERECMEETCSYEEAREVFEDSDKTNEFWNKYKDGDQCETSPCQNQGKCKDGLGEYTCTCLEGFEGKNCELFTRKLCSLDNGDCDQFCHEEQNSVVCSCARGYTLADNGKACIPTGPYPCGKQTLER
Sequence of factor XIa (P03951 388-625 limits assumed): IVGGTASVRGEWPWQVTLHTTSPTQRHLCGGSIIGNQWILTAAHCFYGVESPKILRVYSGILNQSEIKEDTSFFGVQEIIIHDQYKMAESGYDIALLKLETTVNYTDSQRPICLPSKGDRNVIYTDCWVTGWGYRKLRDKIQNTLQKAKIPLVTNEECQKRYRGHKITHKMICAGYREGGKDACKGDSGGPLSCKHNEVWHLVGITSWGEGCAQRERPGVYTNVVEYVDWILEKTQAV

For the compound `Cc1c(O)cccc1NC(=O)Cn1cc(C(=N)N)c2ccccc21` [Compound 1], the IC50 at factor XIa is 47.9 µM; on factor Xa, 167 µM; on thrombin, more than 200 µM.
`C[C@@H](CNC(=O)Cn1cc(C(=N)N)c2ccccc21)c1ccccc1` [Compound 5]: the IC50 against factor XIa is 37.1 µM; on factor Xa it was 283 µM; against thrombin, more than 200 µM.
For `N=C(N)c1cn(CC(=O)Nc2cccnc2)c2c(Br)cccc12` [Compound 8], the IC50 on factor XIa was 0.62 µM; against factor Xa, 170 µM; at thrombin, more than 200 µM.
At factor XIa, `N=C(N)c1cn(CC(=O)Nc2cc(F)cc(F)c2)c2c(Br)cccc12` [Compound 12] registered an IC50 of 2.51 µM. That is a single-digit micromolar value.
Consider `N=C(N)c1cn(CC(=O)Nc2ccc3ncccc3c2)c2c(Br)cccc12` [Compound 34], for which, at factor XIa, the IC50 was found to be 1.39 µM. This IC50 lies about 1.8-fold lower than the previous one.
`N=C(N)c1cn(CC(=O)Nc2cccnc2)c2cc(CCC(N)=O)ccc12` [Compound 40] displayed an IC50 at factor XIa of 127 µM. Compared with the last compound, the IC50 is about 91-fold higher.
On to `N=C(N)c1cn(CC(=O)Nc2cccnc2)c2c(-c3cccc(O)c3)cccc12` [Compound 46], for which the IC50 on factor XIa was 8.09 µM.
As for `N=C(N)c1cn(CC(=O)Nc2cccnc2)c2c(/C=C/C(N)=O)cccc12` [Compound 47], the IC50 at factor XIa is 1.77 µM; on thrombin, more than 200 µM.
`N=C(N)c1cn(CC(=O)Nc2cccnc2)c2c(/C=C/C(=O)Nc3cccnc3)cccc12` [Compound 54] gave an IC50 at factor XIa of 1.99 µM.
On the same count and under the same terms, in the case of `COC(=O)c1ccc(NC(=O)Cn2cc(C(=N)N)c3cccc(/C=C/C(=O)NC4Cc5ccccc5C4)c32)cc1` [Compound 58] it was 3.23 µM; in that of `COC(=O)c1ccc(NC(=O)Cn2cc(C(=N)N)c3cccc(/C=C/C(=O)N4CCc5cc(O)c(O)cc5C4)c32)cc1` [Compound 64], 1.96 µM.
Turning to `N=C(N)c1cn(CC(=O)Nc2ccc(C(=O)O)cc2)c2c(C=CC(=O)NC(Cc3ccc(O)cc3)C(=O)O)cccc12` (stereo not shown) [Compound 70], the IC50 against factor XIa is 0.042 µM; at factor Xa it was more than 2 µM; at thrombin, more than 200 µM.
The like results for `N=C(N)c1cn(CC(=O)Nc2ccc(C(=O)O)cc2)c2c(/C=C/C(=O)N[C@H](C(=O)O)c3ccccc3)cccc12` [Compound 77] were, in that order, 0.093 µM, 67.8 µM and more than 200 µM.
On factor XIa, `N=C(N)c1cn(CC(=O)Nc2cccnc2)c2c(C(N)=O)cccc12` [Compound 84] yielded an IC50 of 1.47 µM.
`CCOC(=O)C1CCCN(C(=O)Cn2cc(C(=N)N)c3cccc(C(=O)N4CCCC(C(=O)OCC)C4)c32)C1` (stereo not shown) [Compound 91] returned an IC50 against factor XIa of 3.81 µM.
For `COC(=O)c1ccc(NC(=O)Cn2cc(C(=N)N)c3cccc(C(=O)NCc4ccc(O)c(O)c4)c32)cc1` [Compound 95], the IC50 worked out at 0.87 µM at factor XIa, 82 µM against factor Xa and 4.2 µM on thrombin.
For `COC(=O)[C@H](CC(C)C)NC(=O)c1cccc2c(C(=N)N)cn(CC(=O)Nc3cccnc3)c12` [Compound 98], the IC50 came out at 0.1 µM at factor XIa and 3.78 µM against thrombin.
Regarding `N=C(N)c1cn(C(=CC(=O)N2CCNCC2)c2ccccc2)c2ccccc12` [Compound 101], it took 6.27 µM to reach half-maximal inhibition against factor XIa (IC50). In other words, the single-digit micromolar range.
Compound `N=C(N)c1cn(C(=CC(=O)N2CCCC(C(=O)O)C2)c2ccccc2)c2ccccc12` (stereo not shown) [Compound 111] displayed an IC50 on factor XIa of 13.7 µM.
`COC(=O)c1ccc(Br)cc1-n1cc(C(=N)N)c2ccccc21` [Compound 131]: the IC50 is 1.36 µM against factor XIa, 35.1 µM at factor Xa and 60.2 µM at thrombin.
In the same order, the values of `COC(=O)c1ccc(-c2cccc(O)c2)cc1-n1cc(C(=N)N)c2ccccc21` [Compound 135] are 1.62 µM, 15.2 µM and 43.7 µM.
In the same order, the values of `COC(=O)c1ccc(-c2cccnc2)cc1-n1cc(C(=N)N)c2ccccc21` [Compound 139] are 3.8 µM, 9.65 µM and 73.1 µM.
`COC(=O)c1ccc(NC(=O)c2cccnc2)cc1-n1cc(C(=N)N)c2ccccc21` [Compound 142]: at factor XIa, half-maximal inhibition (IC50) was put at 11.3 µM.
On the same count and under the same terms, in the case of `N=C(N)c1cn(-c2cc(Br)ccc2C(=O)N2CCNCC2)c2ccccc12` [Compound 144] it was 81.7 µM; in that of `CON(C)C(=O)c1ccc(Br)cc1-n1cc(C(=N)N)c2ccccc21` [Compound 148], 134 µM; in that of `N=C(N)c1cn(-c2cc(Br)ccc2C(=O)NCc2ccccc2)c2ccccc12` [Compound 150], 280 µM.
With `N=C(N)c1cn(-c2ccccc2[N+](=O)[O-])c2ccccc12` [Compound 151], the IC50 on factor XIa is 4.15 µM; against factor Xa, 145 µM; against thrombin, 224 µM.
In the case of `COC(=O)c1cccc(Oc2ccc([N+](=O)[O-])c(-n3cc(C(=N)N)c4ccccc43)c2)c1` [Compound 154], the IC50 against factor XIa turned out to be 3 µM; on factor Xa it was 54.7 µM; against thrombin it was 20.2 µM.
Turning to `N=C(N)c1cn(-c2cc(Cl)ccc2[N+](=O)[O-])c2c(C(=O)Nc3cccnc3)cccc12` [Compound 158], the IC50 at factor XIa was 1.24 µM; against factor Xa, 80.8 µM; on thrombin it was more than 200 µM.

Broadly, the IC50 is the point on the concentration scale where inhibition reaches its midpoint. High values mean weaker potency in that assay, low ones greater potency in that assay.
